According to ChEMBL document CHEMBL3739378, “Nocarimidazoles A and B from a Marine-Derived Actinomycete of the Genus Nocardiopsis” (2015):
Converted amounts (≈) assume the structure as drawn. The source made the active and inactive calls. No cut-off for these calls is given here.

Key:
ACHN = test: Cytotoxicity against human ACHN cells; type: functional, cell-based
Bacillus subtilis = test: Antibacterial activity against Bacillus subtilis ATCC 6633 after 24 hrs; type: functional; settings: ATCC 6633, 24 h
A498 = test: Cytotoxicity against human A498 cells; type: functional, cell-based
[1] = molecular target: Acetylcholinesterase (Homo sapiens) (UniProt P22303); test: Inhibition of AChE (unknown origin) at 100 ug/ml for 15 mins by spectrophotometry
Chain of Acetylcholinesterase (Homo sapiens) (P22303 whole entry): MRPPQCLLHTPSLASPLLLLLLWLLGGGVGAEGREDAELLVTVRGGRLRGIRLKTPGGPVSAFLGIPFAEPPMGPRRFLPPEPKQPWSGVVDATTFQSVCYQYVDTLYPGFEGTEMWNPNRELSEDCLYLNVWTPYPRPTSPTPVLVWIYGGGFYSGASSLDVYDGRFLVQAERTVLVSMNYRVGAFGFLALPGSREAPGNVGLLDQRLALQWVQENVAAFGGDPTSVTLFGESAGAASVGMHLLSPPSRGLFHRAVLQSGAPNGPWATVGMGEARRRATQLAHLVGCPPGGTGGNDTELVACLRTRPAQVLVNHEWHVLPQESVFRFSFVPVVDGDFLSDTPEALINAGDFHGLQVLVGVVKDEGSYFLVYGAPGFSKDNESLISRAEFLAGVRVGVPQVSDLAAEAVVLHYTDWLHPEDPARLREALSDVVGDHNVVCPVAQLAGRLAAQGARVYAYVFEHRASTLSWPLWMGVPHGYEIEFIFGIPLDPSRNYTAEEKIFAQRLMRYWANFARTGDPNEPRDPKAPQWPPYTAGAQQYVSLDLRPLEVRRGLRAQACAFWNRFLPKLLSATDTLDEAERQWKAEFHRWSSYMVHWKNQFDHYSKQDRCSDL

[2] = tested on: Staphylococcus epidermidis; test: Antibacterial activity against Staphylococcus epidermidis ATCC 12228 after 24 hrs; type: functional; settings: ATCC 12228, 24 h

Row | Structure (SMILES) | Activity (ACHN) | MIC (Bacillus subtilis) [µg/mL] | Activity (A498) | inhibition [1] | MIC [2] [µg/mL]
1 | CCC(C)CCCCCCC(=O)c1nc[nH]c1N (centres undefined) | inactive | 64 (≈ 255 µM) | inactive | Active | 
2 | CC(C)CCCCCCC(=O)c1nc[nH]c1N | inactive | 64 (≈ 270 µM) | inactive | Active | 64 (≈ 270 µM)
